What is called inhibition is the percentage by which the read-out fell short of the control. For orientation: IC50 means the point on the concentration scale where inhibition reaches its midpoint. Usually Ki stands for a measure of affinity in units of concentration, obtained from inhibition or displacement. A lower Ki goes with a stronger hold on the target.

Molecules are shown by their SMILES. Where two headings read alike, the source gives them in different places.

In test [1] the target is T1, 5-HT1A receptor (Rattus norvegicus, UniProt P19327).
T1 construct: from tissue; host or cells: rat hippocampal tissue
T1 sequence (P19327 1-422): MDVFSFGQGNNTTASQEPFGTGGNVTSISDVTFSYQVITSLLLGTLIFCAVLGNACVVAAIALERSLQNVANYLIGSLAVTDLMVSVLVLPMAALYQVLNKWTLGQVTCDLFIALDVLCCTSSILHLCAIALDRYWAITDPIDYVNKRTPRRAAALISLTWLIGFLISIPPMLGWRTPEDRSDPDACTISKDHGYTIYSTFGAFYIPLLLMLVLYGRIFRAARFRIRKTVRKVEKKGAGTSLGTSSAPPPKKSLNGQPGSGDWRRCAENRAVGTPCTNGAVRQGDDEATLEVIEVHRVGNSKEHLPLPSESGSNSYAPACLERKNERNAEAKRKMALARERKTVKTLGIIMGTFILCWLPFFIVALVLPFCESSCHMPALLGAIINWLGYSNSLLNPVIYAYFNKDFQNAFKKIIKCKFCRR
Kind of test: inhibition of [3H] 8-hydroxy-2-(di-n-propylamino)tetraline binding at 5-HT1A receptor binding sites in rat hippocampal tissue. Particulars: for inhibition at 1 µM: read-out: Receptor Binding 5HT1A % Inhibition at 1 μM.
From the text: 8-hydroxy-2-(di-n-propylamino)tetraline binding at 5-HT binding sites in rat hippocamphal tissue, following the procedure of Hall et al., J. Neurochem., 44 1685 (1985).

Test [2] concerns 5HT (synaptosomal serotonin uptake). The test is described as follows: inhibition of synaptosomal uptake of serotonin (14C-5-HT). The test is classed as biochemical. Particulars: synaptosomal 14C-5-HT uptake; for IC50: read-out: Neuronal Uptake 5HT IC50.
Test [3] concerns the target T2, dopamine D2 receptor (Rattus norvegicus, UniProt P61169).
T2 construct: D2 receptors found in homogenized limbic brain tissue; from tissue; host or cells: homogenized limbic brain tissue
The test is described as follows: inhibition of 3H-haloperidol binding at D2 receptors in homogenized limbic brain tissue.
From the text: The actual percentage reduction of ^3 H-haloperidol binding is reported infra and the larger the number, the greater the potential for dopamine D2 receptor binding and antipsychotic activity.

Test [4] has as its system NE (synaptosomal norepinephrine uptake). Kind of test: inhibition of synaptosomal uptake of norepinephrine (3H-NE). The test is classed as biochemical. Particulars: synaptosomal 3H-NE uptake; for IC50: read-out: Neuronal Uptake NE IC50.
Where [5] appears, read: at 1 μM, rat hippocampal tissue.

T2 sequence (P61169 whole entry): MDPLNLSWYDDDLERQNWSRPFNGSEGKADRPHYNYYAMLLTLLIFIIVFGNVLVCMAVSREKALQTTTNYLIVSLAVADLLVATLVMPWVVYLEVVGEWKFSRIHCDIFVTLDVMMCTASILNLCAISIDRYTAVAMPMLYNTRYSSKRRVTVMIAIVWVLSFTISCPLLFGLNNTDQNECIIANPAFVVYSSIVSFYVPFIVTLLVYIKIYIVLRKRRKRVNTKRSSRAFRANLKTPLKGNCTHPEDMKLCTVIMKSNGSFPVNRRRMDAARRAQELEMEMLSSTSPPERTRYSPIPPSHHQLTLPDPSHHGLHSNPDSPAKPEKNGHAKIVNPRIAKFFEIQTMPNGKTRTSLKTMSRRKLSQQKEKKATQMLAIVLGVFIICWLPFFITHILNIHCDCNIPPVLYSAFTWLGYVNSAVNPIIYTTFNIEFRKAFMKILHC

As to `O=C1CC2(CCCC2)CC(=O)N1CCCCN1CCN(c2ncccn2)CC1` [Buspirone, reference compound], in test [1], the inhibition at 1 µM came to 97%.

With `COc1cccc(C(=CCN2CCN(Cc3ccccc3)CC2)C2(O)CCCCC2)c1` [Example 1, 1-[1-(3-methoxyphenyl)-3-[4-(phenylmethyl)-1-piperazinyl]-1-propenyl]cyclohexanol], the values for the IC50 in test [2] and in test [4] were 1690 nM and 640 nM, respectively. In test [3], this molecule showed an inhibition at 1 µM of 80%. In test [1] (rat hippocampal tissue), the affinity, expressed as Ki, was 3 nM.

With `COc1ccc(C(=CCN2CCN(Cc3ccccc3)CC2)C2(O)CCCCC2)cc1` [Example 2, 1-[1-(4-methoxyphenyl)-3-[4-(phenylmethyl)-1-piperazinyl]-1-propenyl]cyclohexanol], 1 µM produced 66% inhibition in test [3]. In test [1] (rat hippocampal tissue), the affinity, expressed as Ki, was 4 nM.

For `COc1cccc(C(=CCN2CCN(Cc3cccc(Cl)c3)CC2)C2(O)CCCCC2)c1` [Example 4], in test [2] (at 10 μM), the “Neuronal Uptake 5HT % Inhibition at 10 μM” value came out at 100%. In addition, the Ki stood at 17 nM in test [3] and 0.7 nM in test [1] (rat hippocampal tissue). The “Neuronal Uptake NE % Inhibition at 10 μM” value in test [4] (at 10 μM) came out at 100%.

For `COc1cccc(C(=CCN2CCN(Cc3ccc(Cl)cc3)CC2)C2(O)CCCCC2)c1` [Example 5, 1-[3-[4-[(4-chlorophenyl)methyl]-1-piperazinyl]-1-(3-methoxyphenyl)-1-propenyl]cyclohexanol], the inhibition at 1 µM was determined as 76% in test [3] and 99% in test [1] (setting [5]).

Consider `COc1cccc(C(=CCN2CCN(Cc3ccc(C(F)(F)F)cc3)CC2)C2(O)CCCCC2)c1` [Example 6, 1-[1-(3-methoxyphenyl)-3-[4-[[4-(trifluoromethyl)phenyl]methyl]-1-piperazinyl]-1-propenyl]cyclohexanol], for which the figures for the inhibition at 1 µM in test [3] and in test [1] (setting [5]) were 76% and 99%, respectively.

On to `COc1cccc(C(=CCN2CCN(c3ncccn3)CC2)C2(O)CCCCC2)c1` [Example 7], for which the IC50 in test [2] was found to be 2090 nM; in test [4] it was 4820 nM. Also, 1 µM produced 61% inhibition in test [3]. Further, the Ki in test [1] (rat hippocampal tissue) came out at 49 nM.

With `COc1cccc(C(=CCN2CCN(c3cncc(Cl)n3)CC2)C2(O)CCCCC2)c1` [Example 8, 1-[3-[4-(6-chloro-2-pyrazinyl)-1-piperazinyl]-1-(3-methoxyphenyl)-1-(3-methoxyphenyl)-1-propenyl]cyclohexanol], the Ki in test [1] (rat hippocampal tissue) came to 138 nM.

Regarding `COc1ccc(C(=CCCN2CCN(Cc3ccccc3)CC2)C2(O)CCCCC2)cc1` [Example 10, 1-[1-(4-methoxyphenyl)-4-[4-(phenylmethyl)-1-piperazinyl]-1-butenyl]cyclohexanol], the IC50 in test [2] was 920 nM; in test [4], 190 nM. For the same molecule, the inhibition at 1 µM in test [3] amounted to 53%; in test [1] (setting [5]) it was 74%.

The record behind these values is patent US4745191A, “1-((A-substituted phenyl-ω-substituted piperazinyl)alkenyl) cyclohexanol” (American Home Products Corporation, priority 1987, dated 1988).
